Source: patent publication US10947252B2, “Inhibitors of KEAP1-Nrf2 protein-protein interaction” (Janssen Pharmaceutica NV, priority 2018, dated 2021)

Tests used:
[1] = tested on: Glo-Response ARE-luc2P HEK293 cell line; assay: ARE luciferase reporter cell-based assay; conditions: Homo sapiens, HEK293, 24 h, average of results obtained;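 note: luciferase signal tracks Nrf2 activation of the ARE once compounds disrupt KEAP1-Nrf2 binding, read with One-Glo reagent, DMSO serving as low control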
[2] = molecular target: Kelch domain of human KEAP1 (321-624 aa) (Homo sapiens (Human), UniProt Q14145); assay: KEAP1 KELCH ThermoFluor binding assay; conditions: KEAP Kelch […], 1,8-ANS, pH 7.0, average of results obtained, read-out: Tf Kd;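 note: Ligand-induced melting temperature shift of E. coli-expressed KEAP1 Kelch protein, Kd estimated from concentration-response curves of ΔTm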
Chain of Kelch domain of human KEAP1 (321-624 aa) (Q14145 321-624): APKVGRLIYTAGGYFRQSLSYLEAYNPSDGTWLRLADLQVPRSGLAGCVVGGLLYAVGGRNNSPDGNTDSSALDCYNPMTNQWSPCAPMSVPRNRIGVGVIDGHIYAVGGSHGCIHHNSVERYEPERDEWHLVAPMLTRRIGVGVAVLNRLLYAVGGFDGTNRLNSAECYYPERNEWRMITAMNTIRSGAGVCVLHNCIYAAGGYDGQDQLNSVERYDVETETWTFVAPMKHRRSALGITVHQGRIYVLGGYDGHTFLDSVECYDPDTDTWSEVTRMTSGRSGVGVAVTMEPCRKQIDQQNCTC

Row | Structure (SMILES) | EC50 [1] [nM] | Kd [2] [nM]
1 | Cc1ccc([C@@H](c2ccn3c(C(F)(F)F)nnc3c2C)C(C)(C)C(=O)O)cc1CN1CC2(CC2)Oc2nc(OCCN3CCC3)c(C)cc2S1(=O)=O (single isomer, unassigned) [Example 604, (*S)-3-(3-((7′-(2-(Azetidin-1-yl)ethoxy)-8′-methyl-1′,1′-dioxidospiro[cyclopropane-1,4′-pyrido[2,3-b][1,4,5]oxathiazepin]-2′(3′H)-yl)methyl)-4-methylphenyl)-2,2-dimethyl-3-(8-methyl-3-(trifluoromethyl)-[1,2,4]triazolo[4,3-a]pyridine-7-yl)propanoic Acid] | 8.82 | < 1
2 | Cc1ccc([C@@H](c2ccn3c(C(F)(F)F)nnc3c2C)C(C)(C)C(=O)O)cc1CN1CC2(CCOCC2)Oc2nc(CCC(=O)NC3CCC3)ccc2S1(=O)=O (single isomer, unassigned) [Example 605, (*S)-3-(3-((7′-(3-Cyclobutylamino-3-oxopropyl)-1′,1′-dioxido-2,3,5,6-tetrahydrospiro[pyran-4,4′-pyrido[2,3-b][1,4,5]oxathiazepin]-2′(3′H)-yl)methyl)-4-methylphenyl)-2,2-dimethyl-3-(8-methyl-3-(trifluoromethyl)-[1,2,4]triazolo[4,3-a]pyridine-7-yl)propanoic Acid] | 109 | < 1
3 | Cc1ccc([C@@H](c2ccn3c(C(F)(F)F)nnc3c2C)C(C)(C)C(=O)O)cc1CN1CC2(CCOCC2)Oc2nc(OCCO)ccc2S1(=O)=O (single isomer, unassigned) [Example 606, (*S)-3-(3-((7′-(2-Hydroxyethoxy)-1′,1′-dioxido-2,3,5,6-tetrahydrospiro[pyran-4,4′-pyrido[2,3-b][1,4,5]oxathiazepin]-2′(3′H)-yl)methyl)-4-methylphenyl)-2,2-dimethyl-3-(8-methyl-3-(trifluoromethyl)-[1,2,4]triazolo[4,3-a]pyridine-7-yl)propanoic Acid] | > 20000 | 1730
4 | Cc1ccc([C@@H](c2ccn3c(C(F)(F)F)nnc3c2C)C(C)(C)C(=O)O)cc1CN1CC2(CCOCC2)Oc2nc(OCCCOCCCO)ccc2S1(=O)=O (single isomer, unassigned) [Example 607, (*S)-3-(3-((7′-(3-(3-Hydroxypropoxy)propoxy)-1′,1′-dioxido-2,3,5,6-tetrahydrospiro[pyran-4,4′-pyrido[2,3-b][1,4,5]oxathiazepin]-2′(3′H)-yl)methyl)-4-methylphenyl)-2,2-dimethyl-3-(8-methyl-3-(trifluoromethyl)-[1,2,4]triazolo[4,3-a]pyridin-7-yl)propanoic Acid] | 7620 | 1360
5 | Cc1ccc([C@H](c2ccn3c(C(F)(F)F)nnc3c2C)C(C)(C)C(=O)O)cc1CN1CC2(CCOCC2)Oc2nc(OCCCOCCCO)ccc2S1(=O)=O (single isomer, unassigned) [Example 608, (*R)-3-(3-((7′-(3-(3-Hydroxypropoxy)propoxy)-1′,1′-dioxido-2,3,5,6-tetrahydrospiro[pyran-4,4′-pyrido[2,3-b][1,4,5]oxathiazepin]-2′(3′H)-yl)methyl)-4-methylphenyl)-2,2-dimethyl-3-(8-methyl-3-(trifluoromethyl)-[1,2,4]triazolo[4,3-a]pyridin-7-yl)propanoic Acid] | 9.12 | < 1
6 | Cc1ccc([C@H](c2ccn3c(C(F)(F)F)nnc3c2C)C(C)(C)C(=O)O)cc1CN1CC2(CCOCC2)Oc2nc(OCCN3CCCC3)c(C)cc2S1(=O)=O (single isomer, unassigned) [Example 609, (*R)-2,2-Dimethyl-3-(4-methyl-3-((8′-methyl-1′,1′-dioxido-7′-(2-(pyrrolidin-1-yl)ethoxy)-2,3,5,6-tetrahydrospiro[pyran-4,4′-pyrido[2,3-b][1,4,5]oxathiazepin]-2′(3′H)-yl)methyl)phenyl)-3-(8-methyl-3-(trifluoromethyl)-[1,2,4]triazolo[4,3-a]pyridin-7-yl)propanoic Acid] | > 20000 | 634
7 | Cc1ccc([C@@H](c2ccn3c(C(F)F)nnc3c2C)C(C)(C)C(=O)O)nc1CN1CC2(COC2)Oc2ncccc2S1(=O)=O (single isomer, unassigned) [Example 610, (*S)-3-(3-(Difluoromethyl)-8-methyl-[1,2,4]triazolo[4,3-a]pyridin-7-yl)-3-(6-((1′,1′-dioxidospiro[oxetane-3,4′-pyrido[2,3-b][1,4,5]oxathiazepin]-2′(3′H)-yl)methyl)-5-methylpyridin-2-yl)-2,2-dimethylpropanoic Acid] | 4.42 | < 1
8 | Cc1ccc([C@H](c2ccn3c(C(F)F)nnc3c2C)C(C)(C)C(=O)O)nc1CN1CC2(COC2)Oc2ncccc2S1(=O)=O (single isomer, unassigned) [Example 611, (*R)-3-(3-(Difluoromethyl)-8-methyl-[1,2,4]triazolo[4,3-a]pyridin-7-yl)-3-(6-((1′,1′-dioxidospiro[oxetane-3,4′-pyrido[2,3-b][1,4,5]oxathiazepin]-2′(3′H)-yl)methyl)-5-methylpyridin-2-yl)-2,2-dimethylpropanoic Acid] | 574 | 12800
9 | Cc1ncc([C@H](c2ccc3c(nnn3C3CC3)c2C)C(C)(C)C(=O)O)cc1CN1CC2(COC2)Oc2ncccc2S1(=O)=O (single isomer, unassigned) [Example 612, (*S)-3-(1-Cyclopropyl-4-methyl-1H-benzo[d][1,2,3]triazol-5-yl)-3-(5-((1′,1′-dioxidospiro[oxetane-3,4′-pyrido[2,3-b][1,4,5]oxathiazepin]-2′(3′H)-yl)methyl)-6-methylpyridin-3-yl)-2,2-dimethylpropanoic Acid] | 19900 | 61500
10 | Cc1ncc([C@@H](c2ccc3c(nnn3C3CC3)c2C)C(C)(C)C(=O)O)cc1CN1CC2(COC2)Oc2ncccc2S1(=O)=O (single isomer, unassigned) [Example 613, (*R)-3-(1-Cyclopropyl-4-methyl-1H-benzo[d][1,2,3]triazol-5-yl)-3-(5-((1′,1′-dioxidospiro[oxetane-3,4′-pyrido[2,3-b][1,4,5]oxathiazepin]-2′(3′H)-yl)methyl)-6-methylpyridin-3-yl)-2,2-dimethylpropanoic Acid] | 33.2 | < 1
11 | Cc1cnc2c(c1)S(=O)(=O)N(Cc1cc([C@@H](c3ccn4c(C(F)(F)F)nnc4c3C)C(C)(C)C(=O)O)ccc1C)CC1(COC1)O2 (single isomer, unassigned) [Example 614, (*S)-2,2-dimethyl-3-(4-methyl-3-((8′-methyl-1′,1′-dioxidospiro[oxetane-3,4′-pyrido[2,3-b][1,4,5]oxathiazepin]-2′(3′H)-yl)methyl)phenyl)-3-(8-methyl-3-(trifluoromethyl)-[1,2,4]triazolo[4,3-a]pyridine-7-yl)propanoic Acid] | 0.71 | < 1
12 | Cc1ccc([C@@H](c2ccn3c(C(F)(F)F)nnc3c2C)C(C)(C)C(=O)O)cc1CN1CC2(COC2)Oc2ncccc2S1(=O)=O (single isomer, unassigned) [Example 615, (*S)-3-(3-((1′,1′-dioxidospiro[oxetane-3,4′-pyrido[2,3-b][1,4,5]oxathiazepin]-2′(3′H)-yl)methyl)-4-methylphenyl)-2,2-dimethyl-3-(8-methyl-3-(trifluoromethyl)-[1,2,4]triazolo[4,3-a]pyridine-7-yl)propanoic Acid] | 1.09 | < 1
13 | Cc1ccc([C@@H](c2ccn3c(C(F)F)nnc3c2C)C(C)(C)C(=O)O)cc1CN1CC2(COC2)Oc2ncccc2S1(=O)=O (single isomer, unassigned) [Example 616, (*S)-3-(3-(difluoromethyl)-8-methyl-[1,2,4]triazolo[4,3-a]pyridine-7-yl)-3-(3-((1′,1′-dioxidospiro[oxetane-3,4′-pyrido[2,3-b][1,4,5]oxathiazepin]-2′(3′H)-yl)methyl)-4-methylphenyl)-2,2-dimethylpropanoic Acid] | 2.14 | < 1
14 | Cc1cnc2c(c1)S(=O)(=O)N(Cc1cc([C@@H](c3ccn4c(C(F)F)nnc4c3C)C(C)(C)C(=O)O)ccc1C)CC1(COC1)O2 (single isomer, unassigned) [Example 617, (*S)-3-(3-(Difluoromethyl)-8-methyl-[1,2,4]triazolo[4,3-a]pyridin-7-yl)-2,2-dimethyl-3-(4-methyl-3-((8′-methyl-1′,1′-dioxidospiro[oxetane-3,4′-pyrido[2,3-b][1,4,5]oxathiazepin]-2′(3′H)-yl)methyl)phenyl)propanoic Acid] | 1.15 | < 1
15 | Cc1cnc2c(c1)S(=O)(=O)N(Cc1cc([C@H](c3ccn4c(C5CC5)nnc4c3C)C(C)(C)C(=O)O)ccc1C)CC1(COC1)O2 (single isomer, unassigned) [Example 619, (*R)-3-(3-Cyclopropyl-8-methyl-[1,2,4]triazolo[4,3-a]pyridin-7-yl)-2,2-dimethyl-3-(4-methyl-3-((8′-methyl-1′,1′-dioxidospiro[oxetane-3,4′-pyrido[2,3-b][1,4,5]oxathiazepin]-2′(3′H)-yl)methyl)phenyl)propanoic Acid] | 4.48 | < 1
16 | Cc1ccc([C@H](c2ccn3c(C4CC4)nnc3c2C)C(C)(C)C(=O)O)cc1CN1CC2(COC2)Oc2ncccc2S1(=O)=O (single isomer, unassigned) [Example 620, (*R)-3-(3-Cyclopropyl-8-methyl-[1,2,4]triazolo[4,3-a]pyridin-7-yl)-3-(3-((1′,1′-dioxidospiro[oxetane-3,4′-pyrido[2,3-b][1,4,5]oxathiazepin]-2′(3′H)-yl)methyl)-4-methylphenyl)-2,2-dimethylpropanoic Acid] | 7.87 | < 1
17 | Cc1ccc([C@@H](c2ccn3c(C4CC4)nnc3c2C)C(C)(C)C(=O)O)cc1CN1CC2(COC2)Oc2ncccc2S1(=O)=O (single isomer, unassigned) [Example 621, (*S)-3-(3-Cyclopropyl-8-methyl-[1,2,4]triazolo[4,3-a]pyridin-7-yl)-3-(3-((1′,1′-dioxidospiro[oxetane-3,4′-pyrido[2,3-b][1,4,5]oxathiazepin]-2′(3′H)-yl)methyl)-4-methylphenyl)-2,2-dimethylpropanoic Acid] | 5640 | < 1
